# Test results reported in patent US20230331731A1, “CRYSTAL FORM OF PYRROLO HETEROCYCLIC DERIVATIVE AND PREPARATION METHOD THEREFOR” (Jiangsu Hengrui Pharmaceuticals Co., Ltd., priority 2020, published 2023).
# Assays:
# Format in all cases: physicochemical
# [1] = Influencing factor stability study
# [2] = Long-term/accelerated stability study
# Method: 1. The hydrobromide in crystal form α was left to stand under 25° C., 60% RH conditions and 40° C., 75% RH conditions to investigate its stability.
# 4. The fumarate in crystal form II was subjected to 6-month long-term (25° C., 60% RH) and accelerated (40° C., 75% RH) stability studies.
# [3] = DVS (dynamic vapor sorption) analysis
# Method: DVS refers to dynamic vapor sorption: The measurement was conducted on SMS DVS Advantage; at 25° C., the humidity was changed as follows: 50%-95%-0%-95%-50%, in steps of 10% (5% for the last step) (specific humidity ranges are shown in corresponding graphs, and those listed here were used in most cases); the criterion was dm/dt being no greater than 0.002%.
# [4] = 40° C., open, 30 days (5/10/30-day study)
# [5] = 60° C., open, 30 days (5/10/30-day study)
# [6] = 4500 Lux, open, 30 days (5/10/30-day study)
# [7] = RH 75%, open, 30 days (5/10/30-day study)
compound,measurement,setting,value
Cn1nccc1Nc1nccc(-c2cc3n(c2)C(=O)N([C@H](CO)c2cccc(Cl)c2)C3)n1.O=C(O)/C=C/C(=O)O [Fumarate in crystal form II],Color and appearance,"[1]; 40° C., open, 5 days",White solid
same,Purity,"[1]; 40° C., open, 5 days",99.6%
same,Color and appearance,"[1]; 40° C., open, 10 days",White solid
same,Purity,"[1]; 40° C., open, 10 days",99.5%
same,Color and appearance,[1]; [4],White solid
same,Purity,[1]; [4],99.2%
same,Color and appearance,"[1]; 60° C., open, 5 days",White solid
same,Purity,"[1]; 60° C., open, 5 days",99.5%
same,Color and appearance,"[1]; 60° C., open, 10 days",White solid
same,Purity,"[1]; 60° C., open, 10 days",99.5%
same,Color and appearance,[1]; [5],White solid
same,Purity,[1]; [5],98.0%
same,Color and appearance,"[1]; 4500 Lux, open, 5 days",White solid
same,Purity,"[1]; 4500 Lux, open, 5 days",99.6%
same,Color and appearance,"[1]; 4500 Lux, open, 10 days",White solid
same,Purity,"[1]; 4500 Lux, open, 10 days",99.6%
same,Color and appearance,[1]; [6],White solid
same,Purity,[1]; [6],98.4%
same,Color and appearance,"[1]; Initial, 0 days (30-day study)",White solid
same,Purity,"[1]; Initial, 0 days (30-day study)",99.7%
same,Color and appearance,"[1]; RH 75%, open, 5 days",White solid
same,Purity,"[1]; RH 75%, open, 5 days",99.7%
same,Weight gain,"[1]; RH 75%, open, 5 days",0.54%
same,Color and appearance,"[1]; RH 75%, open, 10 days",White solid
same,Purity,"[1]; RH 75%, open, 10 days",99.7%
same,Weight gain,"[1]; RH 75%, open, 10 days",1.03%
same,Weight gain,"[1]; RH 75%, open, 30 days",1.42%
same,Color and appearance,[1]; [7],White solid
same,Purity,[1]; [7],99.7%
same,Color and appearance,"[1]; RH 90%, open, 5 days",White solid
same,Purity,"[1]; RH 90%, open, 5 days",99.7%
same,Weight gain,"[1]; RH 90%, open, 5 days",1.16%
same,Color and appearance,"[1]; RH 90%, open, 10 days",White solid
same,Purity,"[1]; RH 90%, open, 10 days",99.7%
same,Weight gain,"[1]; RH 90%, open, 10 days",2.77%
same,Color and appearance,"[1]; RH 90%, open, 30 days",White solid
same,Purity,"[1]; RH 90%, open, 30 days",99.7%
same,Weight gain,"[1]; RH 90%, open, 30 days",3.97%
same,physical and chemical stability (conclusion),"[1]; high-temperature conditions (40° C. and 60° C.) and high-humidity conditions (75% and 92.5%), 30 days",relatively good physical and chemical stability
same,"Purity, 1 month","[2]; 25° C., 60%RH",99.7%
same,"Purity, 2 months","[2]; 25° C., 60%RH",99.7%
same,"Purity, 3 months","[2]; 25° C., 60%RH",99.7%
same,"Purity, 6 months","[2]; 25° C., 60%RH, 6 months",99.7%
same,"Purity, 1 month","[2]; 40° C., 75%RH",99.7%
same,"Purity, 2 months","[2]; 40° C., 75%RH",99.7%
same,"Purity, 3 months","[2]; 40° C., 75%RH",99.7%
same,"Purity, 6 months","[2]; 40° C., 75%RH, 6 months",99.7%
same,"Purity, Initial",[2]; Initial,99.7%
same,physical and chemical stability (conclusion),"[2]; long-term (25° C., 60% RH) and accelerated (40° C., 75% RH) conditions, 6 months",good physical and chemical stability
same,moisture-absorption weight gain,"[3]; accelerated conditions, 70% RH",about 2.75%
same,moisture-absorption weight gain,"[3]; extreme conditions, 90% RH",about 3.85%
same,moisture-absorption weight gain,"[3]; normal conditions, 25° C., 60% RH",about 2.38%
same,crystal form after DVS analysis,[3]; re-examined after DVS,did not change
